Data as given in US7094423B1, “Methods for preparation of lipid-encapsulated therapeutic agents” (INEX Pharmaceuticals Corp., priority 1999, dated 2006).

Key:
[1] = Trapping efficiency of oligonucleotide in liposomes after anion exchange chromatography; format: physicochemical; conditions: DSPC/Chol/DODAP/PEG-CerC14 liposomes; initial ATP-to-lipid ratio 0.2 mg/mg; 50 mM citrate buffer
[2] = Leakage experiments: ethanol-induced permeabilization of LUVs; format: physicochemical; conditions: DSPC/Chol/PEG-CerC14/DODAP liposomes, 40° C.
Protocol: Leakage experiments. Ethanol-induced permeabilization of LUVs was measured at different temperatures and as a function of the size (MW) of the entrapped solute. […] Leakage of calcein entrapped at self-quenching concentrations was followed by monitoring the dequenching of the calcein fluorescence. LUVs were prepared by hydration of a lipid film with an aqueous solution containing 75 mM calcein and 5 mM HEPES adjusted to pH 7.5 by addition of sodium hydroxide, followed by 5 freeze/thaw cycles and extrusion through 2 stacked 100 nm filters (10 passes). In the case of […] extrusion was performed at 60° C. Unentrapped calcein was exchanged against an isoosmotic HBS buffer by anion exchange chromatography on a DEAE Sepharose CL6B column. The liposome stock solution was diluted to a lipid concentration of 3 μM in HBS containing varying amounts of ethanol pre-equilibrated at 25, 40 or 60° C. The fluorescence at 520 nm was measured (excitation wavelength […], long-pass filter at 430 nm) with a Perkin Elmer LS50 Fluorimeter (Perkin Elmer) after 5 min of incubation at the corresponding temperature. […] The FITC/LRh-PE ratio was measured before and after addition of ethanol. FITC and LRh-PE fluorescence were measured at 515 nm and 590 nm with the excitation wavelength set to 485 nm and 560 nm, respectively.

Compound | fraction entrapped [1] | ethanol concentration at which leakage reaches a maximum [2] | ethanol concentration at which leakage starts [2]
Nc1ncnc2c1ncn2[C@@H]1O[C@H](COP(=O)(O)OP(=O)(O)OP(=O)(O)O)[C@@H](O)[C@H]1O [ATP] | less than 10% | – | –
O=C(O)CN(CC(=O)O)Cc1cc2c(cc1O)Oc1cc(O)c(CN(CC(=O)O)CC(=O)O)cc1C21OC(=O)c2ccccc21 [calcein] | – | around 40 % ethanol | ≤ 30 % ethanol
